# Reference: patent publication US20110105509A1 (Wyeth, LLC, priority 2009, published 2011)
# Molecular target: T1, CRTH2 (Homo sapiens, UniProt Q9Y5Y4)
# T1 construct: expressed in transfected cells; host or cells: CHO cells
# T1 sequence (Q9Y5Y4 1-395): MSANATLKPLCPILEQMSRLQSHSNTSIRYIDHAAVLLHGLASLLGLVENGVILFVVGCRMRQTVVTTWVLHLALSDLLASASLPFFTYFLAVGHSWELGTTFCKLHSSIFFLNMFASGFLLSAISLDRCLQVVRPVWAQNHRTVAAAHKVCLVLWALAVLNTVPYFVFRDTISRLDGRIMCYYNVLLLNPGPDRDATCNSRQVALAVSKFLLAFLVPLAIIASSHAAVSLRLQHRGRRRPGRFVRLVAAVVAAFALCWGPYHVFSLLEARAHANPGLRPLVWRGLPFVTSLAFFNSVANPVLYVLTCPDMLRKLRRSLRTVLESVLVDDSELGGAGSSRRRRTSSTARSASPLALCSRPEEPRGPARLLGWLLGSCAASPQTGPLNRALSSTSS
# Test: FRET based competitive immunoassay (cAMP) in CRTH2 expressing CHO cells
# Assay type: cell-based
# Conditions: CRTH2 expressing CHO cells incubated with forskolin and PGD2; Eu3+ cryptate-labeled anti-cAMP and d2-labeled cAMP
# Description: FRET Assay: To evaluate potency compounds were tested in a FRET based competitive immunoassay in which CRTH2 expressing CHO cells were incubated in the presence of forskolin and PGD2 along with Eu3+ cryptate-labeled anti-cAMP and d2-labeled cAMP.
row,IC50,SMILES
1,150 nM,"COC(=O)Cn1c(C)c(-c2ccc(=O)n(Cc3ccc(F)cc3F)n2)c2ccccc21 [Example 186, methyl 2-(3-(1-(2,4-difluorobenzyl)-6-oxo-1,6-dihydropyridazin-3-yl)-2-methyl-1H-indol-1-yl)acetate]"
2,75 nM,"Cc1c(-c2ccc(=O)n(Cc3cc(F)c(F)cc3F)n2)c2ccccc2n1CC(=O)O [Example 187, 2-(2-methyl-3-(6-oxo-1-(2,4,5-trifluorobenzyl)-1,6-dihydropyridazin-3-yl)-1H-indol-1-yl)acetic acid]"
3,227 nM,"Cc1c(-c2ccc(=O)n(Cc3cccc(F)c3F)n2)c2ccccc2n1CC(=O)O [Example 188, 2-(3-(1-(2,3-difluorobenzyl)-6-oxo-1,6-dihydropyridazin-3-yl)-2-methyl-1H-indol-1-yl)acetic acid]"
4,45 nM,"Cc1c(-c2ccc(=O)n(Cc3ccc(F)cc3)n2)c2ccccc2n1CC(=O)O [Example 189, 2-(3-(1-(4-fluorobenzyl)-6-oxo-1,6-dihydropyridazin-3-yl)-2-methyl-1H-indol-1-yl)acetic acid]"
5,867 nM,"Cc1c(-c2ccc(=O)n(Cc3ccccc3F)n2)c2ccccc2n1CC(=O)O [Example 190, 2-(3-(1-(2-fluorobenzyl)-6-oxo-1,6-dihydropyridazin-3-yl)-2-methyl-1H-indol-1-yl)acetic acid]"
6,64 nM,"Cc1ccc2c(c1)c(-c1ccc(=O)n(Cc3ccccc3)n1)c(C)n2CC(=O)O [Example 191, 2-(3-(1-benzyl-6-oxo-1,6-dihydropyridazin-3-yl)-2,5-dimethyl-1H-indol-1-yl)acetic acid]"
7,4 nM,"Cc1ccc2c(c1)c(-c1nn(Cc3ccccc3)c(=O)c3ccccc13)c(C)n2CC(=O)O [Example 192, 2-(3-(3-Benzyl-4-oxo-3,4-dihydrophthalazin-1-yl)-2,5-dimethyl-1H-indol-1-yl)acetic acid]"
8,8 nM,"Cc1c(Cc2ccc(=O)n(Cc3cc(F)c(F)cc3F)n2)c2cc(F)ccc2n1CC(=O)O [Example 193, 2-(5-fluoro-2-methyl-3-((6-oxo-1-(2,4,5-trifluorobenzyl)-1,6-dihydro-pyridazin-3-yl)methyl)-1H-indol-1-yl)acetic acid]"
9,98 nM,"Cc1c(Cc2ccc(=O)n(Cc3ccncc3)n2)c2cc(F)ccc2n1CC(=O)O [Example 194, 2-(5-fluoro-2-methyl-3-((6-oxo-1-(pyridin-4-ylmethyl)-1,6-dihydro-pyridazin-3-yl)methyl)-1H-indol-1-yl)acetic acid]"
10,12 nM,"Cc1c(Cc2ccc(=O)n(Cc3cccnc3)n2)c2cc(F)ccc2n1CC(=O)O [Example 195, 2-(5-fluoro-2-methyl-3-((6-oxo-1-(pyridin-3-ylmethyl)-1,6-dihydropyridazin-3-yl)methyl)-1H-indol-1-yl)acetic acid]"
11,18 nM,"Cc1c(Cc2ccc(=O)n(Cc3ccccn3)n2)c2cc(F)ccc2n1CC(=O)O [Example 196, 2-(5-fluoro-2-methyl-3-((6-oxo-1-(pyridin-2-ylmethyl)-1,6-dihydropyridazin-3-yl)methyl)-1H-indol-1-yl)acetic acid]"
12,270 nM,"Cc1c(Cc2ccc(=O)n(CC(C)(C)O)n2)c2cc(F)ccc2n1CC(=O)O [Example 197, (5-fluoro-3-{[1-(2-hydroxy-2-methylpropyl)-6-oxo-1,6-dihydropyridazin-3-yl]-methyl}-2-methyl-1H-indol-1-yl)acetic acid]"
13,46 nM,"Cc1c(-c2nn(Cc3ccc(C(F)(F)F)cc3)c(=O)c3ccccc23)c2cc(Cl)ccc2n1CC(=O)O [Example 198, 2-(5-Chloro-2-methyl-3-(4-oxo-3-(4-(trifluoromethyl)benzyl)-3,4-dihydrophthalazin-1-yl)-1H-indol-1-yl)acetic acid]"
14,19 nM,"Cc1c(-c2nn(Cc3ccccc3C(F)(F)F)c(=O)c3ccccc23)c2cc(Cl)ccc2n1CC(=O)O [Example 199, 2-(5-chloro-2-methyl-3-(4-oxo-3-(2-(trifluoromethyl)benzyl)-3,4-dihydrophthalazin-1-yl)-1H-indol-1-yl)acetic acid]"
15,45 nM,"Cc1c(-c2nn(Cc3cccc(C(F)(F)F)c3)c(=O)c3ccccc23)c2cc(Cl)ccc2n1CC(=O)O [Example 200, 2-(5-Chloro-2-methyl-3-(4-oxo-3-(3-(trifluoromethyl)benzyl)-3,4-dihydro-phthalazin-1-yl)-1H-indol-1-yl)acetic acid]"
16,22 nM,"Cc1c(Cc2ccc(=O)n(CC(O)(C(F)(F)F)C(F)(F)F)n2)c2cc(F)ccc2n1CC(=O)O [Example 201, [5-fluoro-2-methyl-3-({6-oxo-1-[3,3,3-trifluoro-2-hydroxy-2-(trifluoromethyl)-propyl]-1,6-dihydro-pyridazin-3-yl}methyl)-1H-indol-1-yl]acetic acid]"
17,9 nM,"Cc1c(-c2nn(Cc3ccccc3C(F)(F)F)c(=O)c3ccccc23)c2cc(F)ccc2n1CC(=O)O [Example 202, 2-(5-fluoro-2-methyl-3-(4-oxo-3-(2-(trifluoromethyl)benzyl)-3,4-dihydrophthalazin-1-yl)-1H-indol-1-yl)acetic acid]"
18,10 nM,"Cc1c(-c2nn(Cc3cccc(C(F)(F)F)c3)c(=O)c3ccccc23)c2cc(F)ccc2n1CC(=O)O [Example 203, 2-(5-fluoro-2-methyl-3-(4-oxo-3-(3-(trifluoromethyl)benzyl)-3,4-dihydro-phthalazin-1-yl)-1H-indol-1-yl)acetic acid]"
19,10 nM,"Cc1c(-c2nn(Cc3ccc(C(F)(F)F)cc3)c(=O)c3ccccc23)c2cc(F)ccc2n1CC(=O)O [Example 204, 2-(5-fluoro-2-methyl-3-(4-oxo-3-(4-(trifluoromethyl)benzyl)-3,4-dihydrophthalazin-1-yl)-1H-indol-1-yl)acetic acid]"
20,60 nM,"Cc1c(-c2nn(-c3ccccc3)c(=O)c3ccccc23)c2cc(F)ccc2n1CC(=O)O [Example 205, 2-(5-fluoro-2-methyl-3-(4-oxo-3-phenyl-3,4-dihydrophthalazin-1-yl)-1H-indol-1-yl)-acetic acid]"
21,320 nM,"Cc1c(-c2nn(-c3ccc(C(F)(F)F)cc3)c(=O)c3ccccc23)c2cc(F)ccc2n1CC(=O)O [Example 206, 2-(5-fluoro-2-methyl-3-(4-oxo-3-(4-(trifluoromethyl)phenyl)-3,4-dihydrophthalazin-1-yl)-1H-indol-1-yl)acetic acid]"
22,588 nM,"Cc1c(-c2nn(-c3cccc(C(F)(F)F)c3)c(=O)c3ccccc23)c2cc(F)ccc2n1CC(=O)O [Example 207, 2-(5-fluoro-2-methyl-3-(4-oxo-3-(3-(trifluoromethyl)phenyl)-3,4-dihydrophthalazin-1-yl)-1H-indol-1-yl)acetic acid]"
23,3 nM,"Cc1c(-c2nn(Cc3nc4cc(Cl)ccc4s3)c(=O)c3ccccc23)c2cc(F)ccc2n1CC(=O)O [Example 208, 2-(3-(3-((5-chlorobenzo[d]thiazol-2-yl)methyl)-4-oxo-3,4-dihydrophthalazin-1-yl)-5-fluoro-2-methyl-1H-indol-1-yl)acetic acid]"
24,14 nM,"Cc1c(-c2nn(Cc3nc4cc(Cl)ccc4s3)c(=O)c3ccccc23)c2cc(Cl)ccc2n1CC(=O)O [Example 209, 2-(5-chloro-3-(3-((5-chlorobenzo[d]thiazol-2-yl)methyl)-4-oxo-3,4-dihydro-phthalazin-1-yl)-2-methyl-1H-indol-1-yl)acetic acid]"
